In patent US8703768B2, “Nitrogen containing heteroaryl compounds” (Hoffmann-La Roche Inc., priority 2010, dated 2014):

Target: human PDE10A (Homo sapiens (Human), UniProt Q9Y233)
Assay: human PDE10A full length Scintillation Proximity Assay (SPA)
Assay type: biochemical
Conditions: 50 nM cGMP and 50 nM [3H]-cGMP, 20 minutes at room temperature; read-out: PDE10A inhibition IC50
Method in brief: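 Radiometric SPA read-out: after 20 min at room temperature with [^3H]-cGMP/cGMP substrate, zinc sulphate (18 mM) bead stop reagent added and counts read after 1 h. Non-specific signal defined without enzyme; full-length protein used.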

Chain of human PDE10A (Q9Y233 other isoform, or with tags, fused parts or gaps): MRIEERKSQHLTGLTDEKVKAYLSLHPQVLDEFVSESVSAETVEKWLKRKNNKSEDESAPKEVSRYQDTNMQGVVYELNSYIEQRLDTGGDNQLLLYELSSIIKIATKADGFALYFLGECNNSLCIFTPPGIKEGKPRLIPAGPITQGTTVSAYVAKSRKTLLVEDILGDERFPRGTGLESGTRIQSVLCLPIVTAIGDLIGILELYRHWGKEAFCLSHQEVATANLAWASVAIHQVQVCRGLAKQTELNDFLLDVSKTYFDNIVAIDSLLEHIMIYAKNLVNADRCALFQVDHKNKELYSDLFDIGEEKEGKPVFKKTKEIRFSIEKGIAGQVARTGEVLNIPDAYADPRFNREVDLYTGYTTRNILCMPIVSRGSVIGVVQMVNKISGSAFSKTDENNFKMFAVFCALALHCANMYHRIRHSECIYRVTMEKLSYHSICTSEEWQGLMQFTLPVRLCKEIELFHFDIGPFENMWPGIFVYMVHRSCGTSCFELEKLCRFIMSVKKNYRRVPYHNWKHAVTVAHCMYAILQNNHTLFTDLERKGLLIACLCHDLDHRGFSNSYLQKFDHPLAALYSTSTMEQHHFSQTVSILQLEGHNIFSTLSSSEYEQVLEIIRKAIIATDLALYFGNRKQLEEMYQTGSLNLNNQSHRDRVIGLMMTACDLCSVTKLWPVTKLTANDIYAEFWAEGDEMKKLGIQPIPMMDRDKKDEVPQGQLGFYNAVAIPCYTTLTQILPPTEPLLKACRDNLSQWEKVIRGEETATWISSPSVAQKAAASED

IC50 [nM]	Structure (SMILES)
0.4	O=C(Nc1sccc1C(=O)N1CCOCC1)c1nc(C2CC2)ccc1Nc1cncnc1 [Example 90, 6-Cyclopropyl-3-(pyrimidin-5-ylamino)-pyridine-2-carboxylic acid [3-(morpholine-4-carbonyl)-thiophen-2-yl]-amide]
27.5	CC(C)c1cc(C(=O)N2CCOCC2)c(NC(=O)c2nc(C3CC3)ccc2Nc2cncnc2)s1 [Example 91, 6-Cyclopropyl-3-(pyrimidin-5-ylamino)-pyridine-2-carboxylic acid [5-isopropyl-3-(morpholine-4-carbonyl)-thiophen-2-yl]-amide]
6.4	CC(C)c1ncc(Nc2cncnc2)c(C(=O)Nc2cnccc2C(=O)NCC(C)(C)O)n1 [Example 92, 2-Isopropyl-5-(pyrimidin-5-ylamino)-pyrimidine-4-carboxylic acid [4-(2-hydroxy-2-methyl-propylcarbamoyl)-pyridin-3-yl]-amide]
4.3	CC(C)(O)CNC(=O)c1ccncc1NC(=O)c1nc(C(C)(C)C)ncc1Nc1cncnc1 [Example 93, 2-tert-Butyl-5-(pyrimidin-5-ylamino)-pyrimidine-4-carboxylic acid [4-(2-hydroxy-2-methyl-propylcarbamoyl)-pyridin-3-yl]-amide]
392	CCN(CC)C(=O)c1ccc(C(=O)NC)c(NC(=O)c2nc(C(C)(C)C)ncc2Nc2cncnc2)c1 [Example 94, 2-{[2-tert-Butyl-5-(pyrimidin-5-ylamino)-pyrimidine-4-carbonyl]-amino}-N^4,N^4-diethyl-N^1-methyl-terephthalamide]
1.8	Cn1cc(NC(=O)c2nc(C3CC3)cnc2Nc2cncnc2)c(C(=O)NCC(C)(C)O)n1 [Example 95, 6-Cyclopropyl-3-(pyrimidin-5-ylamino)-pyrazine-2-carboxylic acid [3-(2-hydroxy-2-methyl-propylcarbamoyl)-1-methyl-1H-pyrazol-4-yl]-amide]
96	CNC(=O)c1nn(C)cc1NC(=O)c1nc(C2CCCO2)cnc1Nc1cncnc1 (centres unmarked) [Example 96, 3-(Pyrimidin-5-ylamino)-6-(tetrahydro-furan-2-yl)-pyrazine-2-carboxylic acid (1-methyl-3-methylcarbamoyl-1H-pyrazol-4-yl)-amide]
1.1	CC(C)(O)CNC(=O)c1ncncc1NC(=O)c1nc(C2CC2)cnc1Nc1cncnc1 [Example 97, 5-{[6-Cyclopropyl-3-(pyrimidin-5-ylamino)-pyrazine-2-carbonyl]-amino}-pyrimidine-4-carboxylic acid (2-hydroxy-2-methyl-propyl)-amide]
0.4	CC(C)(O)CNC(=O)c1ncccc1NC(=O)c1nc(C2CC2)cnc1Nc1cncnc1 [Example 98, 6-Cyclopropyl-3-(pyrimidin-5-ylamino)-pyrazine-2-carboxylic acid [2-(2-hydroxy-2-methyl-propylcarbamoyl)-pyridin-3-yl]-amide]
2.6	CC(C)OCCNC(=O)c1ccncc1NC(=O)c1nc(C2CC2)cnc1Nc1cncnc1 [Example 99, 6-Cyclopropyl-3-(pyrimidin-5-ylamino)-pyrazine-2-carboxylic acid [4-(2-isopropoxy-ethylcarbamoyl)-pyridin-3-yl]-amide]
2.5	O=C(NC1CCOC1)c1ccncc1NC(=O)c1nc(C2CC2)cnc1Nc1cncnc1 (centres unmarked) [Example 100, 6-Cyclopropyl-3-(pyrimidin-5-ylamino)-pyrazine-2-carboxylic acid [4-(tetrahydro-furan-3-ylcarbamoyl)-pyridin-3-yl]-amide]
1.5	O=C(NCC1CCCO1)c1ccncc1NC(=O)c1nc(C2CC2)cnc1Nc1cncnc1 (centres unmarked) [Example 101, 6-Cyclopropyl-3-(pyrimidin-5-ylamino)-pyrazine-2-carboxylic acid {4-[(tetrahydro-furan-2-ylmethyl)-carbamoyl]-pyridin-3-yl}-amide]
16.3	CNC(=O)c1nn(C)cc1NC(=O)c1nc(C2CCOC2)cnc1Nc1cncnc1 (centres unmarked) [Example 102, 3-(Pyrimidin-5-ylamino)-6-(tetrahydro-furan-3-yl)-pyrazine-2-carboxylic acid (1-methyl-3-methylcarbamoyl-1H-pyrazol-4-yl)-amide]
58.7	CNC(=O)c1nn(C)cc1NC(=O)c1nc(C2CCCO2)ccc1Nc1cncnc1 (centres unmarked) [Example 103, 3-(Pyrimidin-5-ylamino)-6-(tetrahydro-furan-2-yl)-pyridine-2-carboxylic acid (1-methyl-3-methylcarbamoyl-1H-pyrazol-4-yl)-amide]
1.1	CC(C)(O)CNC(=O)c1ccncc1NC(=O)c1nc(C2CC2)cnc1Nc1cncnc1 [Example 105, 6-Cyclopropyl-3-(pyrimidin-5-ylamino)-pyrazine-2-carboxylic acid [4-(2-hydroxy-2-methyl-propylcarbamoyl)-pyridin-3-yl]-amide]
2.6	O=C(NC1COC1)c1ccncc1NC(=O)c1nc(C2CC2)cnc1Nc1cncnc1 [Example 106, 6-Cyclopropyl-3-(pyrimidin-5-ylamino)-pyrazine-2-carboxylic acid [4-(oxetan-3-ylcarbamoyl)-pyridin-3-yl]-amide]
117	CCn1cc(NC(=O)c2nc(C3CC3)cnc2Nc2cncnc2)c(C(=O)NC)n1 [Example 107, 6-Cyclopropyl-N-(1-ethyl-3-(methylcarbamoyl)-1H-pyrazol-4-yl)-3-(pyrimidin-5-ylamino)pyrazine-2-carboxamide]
39.7	CCn1cc(NC(=O)c2nc(C3CC3)cnc2Nc2cncnc2)c(C(=O)NCC2CCCO2)n1 (centres unmarked) [Example 108, 6-Cyclopropyl-N-(1-ethyl-3-((tetrahydrofuran-2-yl)methylcarbamoyl)-1H-pyrazol-4-yl)-3-(pyrimidin-5-ylamino)pyrazine-2-carboxamide]
18.9	Cn1cc(NC(=O)c2nc(C3CC3)cnc2Nc2cncnc2)c(C(=O)NCC2CCCO2)n1 (centres unmarked) [Example 109, 6-Cyclopropyl-N-(1-methyl-3-((tetrahydrofuran-2-yl)methylcarbamoyl)-1H-pyrazol-4-yl)-3-(pyrimidin-5-ylamino)pyrazine-2-carboxamide]
0.6	CC(C)(O)CNC(=O)c1cc(F)c(F)cc1NC(=O)c1nc(C2CC2)cnc1Nc1cncnc1 [Example 110, 6-Cyclopropyl-3-(pyrimidin-5-ylamino)-pyrazine-2-carboxylic acid [4,5-difluoro-2-(2-hydroxy-2-methyl-propylcarbamoyl)-phenyl]-amide]
15	CN(CC(C)(C)O)C(=O)c1nn(C)cc1NC(=O)c1nc(C2CC2)cnc1Nc1cncnc1 [Example 111, 6-Cyclopropyl-N-(3-((2-hydroxy-2-methylpropyl)(methyl)carbamoyl)-1-methyl-1H-pyrazol-4-yl)-3-(pyrimidin-5-ylamino)pyrazine-2-carboxamide]
79.6	Cc1ncc(Nc2cncnc2)c(C(=O)Nc2cn(C)nc2C(=O)NCC(C)(C)O)n1 [Example 112, N-(3-(2-Hydroxy-2-methylpropylcarbamoyl)-1-methyl-1H-pyrazol-4-yl)-2-methyl-5-(pyrimidin-5-ylamino)pyrimidine-4-carboxamide]
1.6	COC(C)(C)CNC(=O)c1ccncc1NC(=O)c1nc(C2CC2)cnc1Nc1cncnc1 [Example 113, 6-Cyclopropyl-3-(pyrimidin-5-ylamino)-pyrazine-2-carboxylic acid [4-(2-methoxy-2-methyl-propylcarbamoyl)-pyridin-3-yl]-amide]
